One test relates to BALB/MK cells. Nature of the test: Inhibition of the growth of BALB/MK (mouse keratinocyte) cells in vitro, methylene blue staining. It counts as cell-based. Particulars: 72 h, incubated for three days. Here is the method:
In a known test method (see Meyer et al., Int. J. Cancer 43, 851 (1989)) the inhibitory action of the compounds of formula I is determined briefly as follows: BALB/MK cells (10 000/microtiter plate well) are transferred to 96-well microtiter plates. The test compounds (dissolved in DMSO) are added in a series of concentrations (dilution series), so that the final concentration of DMSO is no greater than 1% (v/v). After the addition, the plates are incubated for three days, during which time the control cultures without test compound are able to undergo at least three cell division cycles. The growth of the MK cells is measured by means of methylene blue staining: after the incubation the cells are fixed with glutaraldehyde, washed with water and stained with 0.05% methylene blue. After a washing step, the stain is eluted with 3% HCl and the optical density per well of the microtitre plate is measured using a Titertek multiskan at 665 nm. IC50 values are determined by means of a computer-aided system using the formula
IC50 =[(ODtest -ODstart)/(ODcontrol
The IC50 value in those experiments is defined as that concentration of the test compound in question which results in a 50% decrease in the number of cells in comparison with the control without inhibitor.
The growth of BALB/MK cells in the presence of compounds of formula I is tested in accordance with the procedure described above. […]

Test [1] addresses T1, EGF-receptor-specific tyrosine protein kinase (EGF-R-PTK; EGF-R ICD) (Homo sapiens, UniProt P00533).
T1 construct: recombinant intracellular domain of the EGF receptor
Nature of the test: Inhibition of the EGF-receptor-specific tyrosine kinase (recombinant intracellular domain of the EGF receptor). It counts as biochemical. As to the method:
The compounds of formula I inhibit the enzyme activity in comparison with the control without inhibitor by 50% (IC50), for example in a concentration of from 0.001 to 20 μM, especially from 0.01 to 5 μM.
Inhibition of the EGF-receptor-specific Tyrosine Kinase
In accordance with the method mentioned above and using the recombinant intracellular domain of the EGF receptor (Europ. J. Biochem. 207, 265-275 (1992)), the following IC50 values are obtained: […]

The next test deals with v-abl kinase (Abelson murine leukemia virus, UniProt P00521). Nature of the test: Inhibition of the v-abl kinase ([Val5]-angiotensin II and [gamma-32P]-ATP as substrates). It counts as biochemical. Conditions: v-abl tyrosine kinase. Here is the method: The above-mentioned inhibition of the v-abl tyrosine kinase is determined in accordance with the methods of N. Lydon et at, Oncogene Research 5, 161-173 (1990) and J. F. Geissler et al., Cancer Research 52, 4492-4498 (1992), with [Val^5 ]-angiotensin II and [γ -^32 P]-ATP being used as substrates.
In accordance with the procedure mentioned above (Oncogene Research 5, 161-173 (1990) and Cancer Research 52, 4492-4498 (1992), the following IC50 values are obtained: […]

T1 sequence (P00533 669-1210 limits assumed): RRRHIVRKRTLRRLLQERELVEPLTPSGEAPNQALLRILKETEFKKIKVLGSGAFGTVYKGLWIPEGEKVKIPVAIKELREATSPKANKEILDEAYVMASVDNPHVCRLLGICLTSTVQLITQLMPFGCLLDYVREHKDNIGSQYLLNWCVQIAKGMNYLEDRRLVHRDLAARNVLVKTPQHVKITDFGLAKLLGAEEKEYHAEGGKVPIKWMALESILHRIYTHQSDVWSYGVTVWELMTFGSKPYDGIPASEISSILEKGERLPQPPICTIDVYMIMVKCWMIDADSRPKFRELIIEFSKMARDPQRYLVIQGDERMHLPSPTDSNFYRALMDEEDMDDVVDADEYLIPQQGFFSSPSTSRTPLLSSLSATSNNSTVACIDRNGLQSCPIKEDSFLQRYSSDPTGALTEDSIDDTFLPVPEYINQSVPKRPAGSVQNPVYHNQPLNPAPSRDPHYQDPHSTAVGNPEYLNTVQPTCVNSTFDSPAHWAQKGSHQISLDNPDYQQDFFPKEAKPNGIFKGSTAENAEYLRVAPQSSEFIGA
Chain of v-abl kinase (P00521 whole entry): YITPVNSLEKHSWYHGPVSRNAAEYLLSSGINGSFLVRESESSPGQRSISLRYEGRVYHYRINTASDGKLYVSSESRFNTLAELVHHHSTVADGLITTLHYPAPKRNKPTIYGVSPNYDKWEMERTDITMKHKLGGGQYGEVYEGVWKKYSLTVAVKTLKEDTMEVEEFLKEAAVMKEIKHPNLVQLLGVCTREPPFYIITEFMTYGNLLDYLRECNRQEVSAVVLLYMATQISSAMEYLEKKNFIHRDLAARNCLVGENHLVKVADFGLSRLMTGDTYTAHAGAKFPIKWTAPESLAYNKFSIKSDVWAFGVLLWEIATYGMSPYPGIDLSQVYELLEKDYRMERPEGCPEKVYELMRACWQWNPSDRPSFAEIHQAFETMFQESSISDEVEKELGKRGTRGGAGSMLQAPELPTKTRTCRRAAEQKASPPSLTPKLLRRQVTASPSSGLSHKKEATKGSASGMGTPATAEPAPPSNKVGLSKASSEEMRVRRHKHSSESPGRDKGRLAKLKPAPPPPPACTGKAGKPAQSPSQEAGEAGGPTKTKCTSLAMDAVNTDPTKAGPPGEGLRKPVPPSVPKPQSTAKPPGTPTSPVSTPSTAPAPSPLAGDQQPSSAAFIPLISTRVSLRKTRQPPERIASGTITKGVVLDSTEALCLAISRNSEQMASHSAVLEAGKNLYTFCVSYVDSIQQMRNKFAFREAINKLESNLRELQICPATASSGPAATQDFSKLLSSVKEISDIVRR

The term IC50 denotes the concentration that inhibits the measured activity by half. Turning to `Nc1ccc(-c2cc3c(N4CCc5ccccc54)ncnc3[nH]2)cc1` [Example 7, 4-(2,3-Dihydroindol-1-yl)-6-(4-amino-phenyl)-7H-pyrrolo[2,3-d]pyrimidine], the results for the 50% inhibitory concentration (IC50) (in the test on BALB/MK cells; in test [1]; against v-abl kinase) were 15.8 µM, 0.21 µM and 0.078 µM, respectively.

Take `Cc1[nH]c2ncnc(N3CCc4ccccc43)c2c1C` [Example 1, 4-(2,3-Dihydroindol-1-yl)-5,6-dimethyl-7H-pyrrolo[2,3-d]pyrimidine]: the IC50 in test [1] turned out to be 1.56 µM.

In the case of `Nc1ccc(-c2cc3c(N4CCCc5ccccc54)ncnc3[nH]2)cc1` [Example 11, 4-(1,2,3,4-Tetrahydroquinolin-1-yl)-6-(4amino-phenyl)-7H-pyrrolo[2.3-d]-pyrimidine], the figures for the IC50 (in the test with BALB/MK cells; in test [1]; against v-abl kinase) were 0.76 µM, 0.026 µM and 0.002 µM, respectively.

In the case of `Cc1[nH]c2ncnc(N3CCCc4ccccc43)c2c1C` [Example 5, 4-(1,2,3,4-Tetrahydroquinolin-1-yl)-5,6-dimethyl-7H-pyrrolo[2,3-d]pyrimidine], the 50% inhibitory concentration (IC50) in test [1] was found to be 2.69 µM.
